Measured values as given in patent US20250262186A1 (SANOFI, priority 2022, published 2025).

What follows are compounds tested against T1, ERα (Homo sapiens, UniProt P03372) (assay: Estrogen receptor degradation activity: breast cancer cell ERα in cell western assay in MCF7 cells). Details: 0.3 μM, 4 hours, relative to fulvestrant 0.1 μM positive control.
T1 construct: made using a breast cancer cell ERα in cell western assay; host or cells: MCF7
T1 sequence (P03372 1-595): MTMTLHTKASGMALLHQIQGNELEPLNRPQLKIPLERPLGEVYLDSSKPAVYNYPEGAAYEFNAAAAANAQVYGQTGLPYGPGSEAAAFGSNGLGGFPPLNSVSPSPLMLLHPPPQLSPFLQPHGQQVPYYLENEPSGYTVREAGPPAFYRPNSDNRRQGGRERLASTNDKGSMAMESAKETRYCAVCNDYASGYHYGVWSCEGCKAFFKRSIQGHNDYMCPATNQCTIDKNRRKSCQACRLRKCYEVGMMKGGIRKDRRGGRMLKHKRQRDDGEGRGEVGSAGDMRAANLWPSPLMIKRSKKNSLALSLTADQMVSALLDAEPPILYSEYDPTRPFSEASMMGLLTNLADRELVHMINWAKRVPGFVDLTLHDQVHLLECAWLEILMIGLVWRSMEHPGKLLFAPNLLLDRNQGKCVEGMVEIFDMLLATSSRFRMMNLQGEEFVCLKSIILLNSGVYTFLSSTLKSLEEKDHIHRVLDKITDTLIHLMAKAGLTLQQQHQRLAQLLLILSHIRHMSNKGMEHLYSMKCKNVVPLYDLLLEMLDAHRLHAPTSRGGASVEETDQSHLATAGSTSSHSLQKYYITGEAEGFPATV
Format: cell-based
Method: Said test involves measuring the in vitro degradation activity of the compounds of the Table 1a.
The measurements of the degradation activities were made using a breast cancer cell ERα in cell western assay as described hereunder.
MCF7 cells (ATCC) were seeded in 384 wells microplate (collagen coated) at a concentration of 10000 cells/30 μL per well in red phenol free MEM alpha medium (invitrogen) containing 5% charcoal dextran striped FBS. The following day, 9 points serial 1:5 dilution of each compound was added to the cells in 2.5 μL at final concentrations ranging from 0.3-0.0000018 μM (in table 2), or 0.1 μM for fulvestrant (using as positive control). At 4 hours post compound addition the cells were fixed by adding 25 μL of formalin (final concentration 5% formalin containing 0.1% triton) for 10 minutes at room temperature and then washed twice with PBS. Then, 50 μL of LI-COR blocking buffer containing 0.1% Triton was added to plate for 30 minutes at room temperature. LI-COR blocking buffer was removed and cells were incubated overnight at cold room with 50 μL anti-ER rabbit monoclonal antibody (Thermo scientific MA1-39540) diluted at 1:1000 in LI-COR blocking buffer containing 0.1% tween-20. Wells which were treated with blocking buffer but no antibody were used as background control. Wells were washed twice with PBS (0.1% tween-20) and incubated at 37° C. for 60 minutes in LI-COR (0.1% tween-20) containing goat anti-rabbit antibody Alexa 488 (1:1000) and Syto-64 a DNA dye (2 μM final concentration). Cells were then washed 3 times in PBS and scanned in ACUMEN explorer (TTP-Labtech). Integrated intensities in the green fluorescence and red fluorescence were measured to determine the levels of ERα and DNA respectively.
The degradation activity with respect to estrogen receptors in this test is given by the concentration which degrades 50% of the estrogen receptor (or IC50) in nM.
The % of ERα levels decrease were determined as follows: % inhibition=100*(1−(sample−fulvestrant: DMSO−fulvestrant)).

Row | SMILES | % Degradation At 0.3 μM
1 | CC1CCC(C2=C(c3cccc(OC4CCN(CCCF)C4)c3)c3ccc(C(=O)O)cc3CCC2)CC1 (single isomer, unassigned; isomer 1) [Compound 11] | 76%
2 | O=C(O)c1ccc2c(c1)CCCC(c1ccc(Cl)cc1Cl)=C2c1cccc(CC2CCN(CCCF)C2)c1 (single isomer, unassigned; isomer 1) [Compound 28, 8-(2,4-dichlorophenyl)-9-(3-((1-(3-fluoropropyl)pyrrolidin-3-yl)methyl)phenyl)-6,7-dihydro-5H-benzo[7]annulene-3-carboxylic acid, Isomer 1] | 87%
3 | CC1CCc2cc(C(=O)O)ccc2C(c2cccc(OC3CCN(CCCF)C3)c2)=C1c1cccc(Cl)c1 (single isomer, unassigned; isomer 1) [Compound 36] | 69%
4 | CC1CCC(C2=C(c3cccc(OC4CCN(CCCF)C4)c3)c3ccc(C(=O)O)cc3CCC2)CC1 (single isomer, unassigned; isomer 2) [Compound 12] | 84%
5 | CC1CCc2cc(C(=O)O)ccc2C(c2cccc(OC3CCN(CCCF)C3)c2)=C1c1cccc(Cl)c1 (single isomer, unassigned; isomer 2) [Compound 37] | 67%
6 | O=C(O)c1ccc2c(c1)CCCC(c1ccc(Cl)cc1Cl)=C2c1cccc(O[C@@H]2CCN(CCCF)C2)c1 [Compound 1, (R)-8-(2,4-dichlorophenyl)-9-(3-((1-(3-fluoropropyl)pyrrolidin-3-yl)oxy)phenyl)-6,7-dihydro-5H-benzo[7]annulene-3-carboxylic acid] | 85%
7 | O=C(O)c1ccc2c(c1)CCCC(c1ccc(Cl)cc1Cl)=C2c1cccc(O[C@H]2CCN(CCCF)C2)c1 [Compound 1a, (S)-8-(2,4-dichlorophenyl)-9-(3-((1-(3-fluoropropyl)pyrrolidin-3-yl)oxy)phenyl)-6,7-dihydro-5H-benzo[7]annulene-3-carboxylic acid] | Inactive
8 | O=C(O)c1ccc2c(c1)CCCC(c1ccccc1)=C2c1cccc(O[C@@H]2CCN(CCCF)C2)c1 [Compound 2, (R)-9-(3-((1-(3-fluoropropyl)pyrrolidin-3-yl)oxy)phenyl)-8-phenyl-6,7-dihydro-5H-benzo[7]annulene-3-carboxylic acid] | 81%
9 | O=C(O)c1ccc2c(c1)CCCC(c1ccccc1)=C2c1cccc(O[C@H]2CCN(CCCF)C2)c1 [Compound 2a, (S)-9-(3-((1-(3-fluoropropyl)pyrrolidin-3-yl)oxy)phenyl)-8-phenyl-6,7-dihydro-5H-benzo[7]annulene-3-carboxylic acid] | Inactive
10 | O=C(O)c1ccc2c(c1)CCCC(c1ccccc1Cl)=C2c1cccc(O[C@@H]2CCN(CCCF)C2)c1 [Compound 3, (R)-8-(2-chlorophenyl)-9-(3-((1-(3-fluoropropyl)pyrrolidin-3-yl)oxy)phenyl)-6,7-dihydro-5H-benzo[7]annulene-3-carboxylic acid] | 84%
11 | O=C(O)c1ccc2c(c1)CCCC(c1ccc(F)cc1Cl)=C2c1cccc(O[C@@H]2CCN(CCCF)C2)c1 [Compound 5, (R)-8-(2-chloro-4-fluorophenyl)-9-(3-((1-(3-fluoropropyl)pyrrolidin-3-yl)oxy)phenyl)-6,7-dihydro-5H-benzo[7]annulene-3-carboxylic acid] | 91%
12 | O=C(O)c1ccc2c(c1)CCCC(c1ccc(Cl)cc1F)=C2c1cccc(O[C@@H]2CCN(CCCF)C2)c1 [Compound 6, (R)-8-(4-chloro-2-fluorophenyl)-9-(3-((1-(3-fluoropropyl)pyrrolidin-3-yl)oxy)phenyl)-6,7-dihydro-5H-benzo[7]annulene-3-carboxylic acid] | 89%
13 | Cc1ccc(C2=C(c3cccc(O[C@@H]4CCN(CCCF)C4)c3)c3ccc(C(=O)O)cc3CCC2)c(F)c1 [Compound 7, (R)-8-(2-fluoro-4-methylphenyl)-9-(3-((1-(3-fluoropropyl)pyrrolidin-3-yl)oxy)phenyl)-6,7-dihydro-5H-benzo[7]annulene-3-carboxylic acid] | 85%
14 | O=C(O)c1ccc2c(c1)CCCC(c1cccc(F)c1Cl)=C2c1cccc(O[C@@H]2CCN(CCCF)C2)c1 [Compound 9, (R)-8-(2-chloro-3-fluorophenyl)-9-(3-((1-(3-fluoropropyl)pyrrolidin-3-yl)oxy)phenyl)-6,7-dihydro-5H-benzo[7]annulene-3-carboxylic acid] | 90%
15 | Cl.O=C(O)c1ccc2c(c1)CCCC(C1CCC(F)(F)CC1)=C2c1cccc(O[C@@H]2CCN(CCCF)C2)c1 [Compound 10, (R)-8-(4,4-difluorocyclohexyl)-9-(3-((1-(3-fluoropropyl)pyrrolidin-3-yl)oxy)phenyl)-6,7-dihydro-5H-benzo[7]annulene-3-carboxylic acid hydrochloride] | 85%
16 | CC1(C)CCC(C2=C(c3cccc(O[C@@H]4CCN(CCCF)C4)c3)c3ccc(C(=O)O)cc3CCC2)CC1.Cl [Compound 13, (R)-8-(4,4-dimethylcyclohexyl)-9-(3-((1-(3-fluoropropyl)pyrrolidin-3-yl)oxy)phenyl)-6,7-dihydro-5H-benzo[7]annulene-3-carboxylic acid, hydrochloride] | 57%
17 | O=C(O)c1ccc2c(c1)CCCC(C1CCCC1)=C2c1cccc(O[C@@H]2CCN(CCCF)C2)c1 [Compound 14, (R)-8-cyclopentyl-9-(3-((1-(3-fluoropropyl)pyrrolidin-3-yl)oxy)phenyl)-6,7-dihydro-5H-benzo[7]annulene-3-carboxylic acid] | 77%
18 | Cc1c(O[C@@H]2CCN(CCCF)C2)cccc1C1=C(c2ccccc2)CCCc2cc(C(=O)O)ccc21 [Compound 15, (R)-9-(3-((1-(3-fluoropropyl)pyrrolidin-3-yl)oxy)-2-methylphenyl)-8-phenyl-6,7-dihydro-5H-benzo[7]annulene-3-carboxylic acid] | 80%
19 | Cc1c(O[C@@H]2CCN(CCCF)C2)cccc1C1=C(c2ccccc2Cl)CCCc2cc(C(=O)O)ccc21 [Compound 16, (R)-8-(2-chlorophenyl)-9-(3-((1-(3-fluoropropyl)pyrrolidin-3-yl)oxy)-2-methylphenyl)-6,7-dihydro-5H-benzo[7]annulene-3-carboxylic acid] | 97%
20 | Cc1c(O[C@@H]2CCN(CCCF)C2)cccc1C1=C(c2ccc(Cl)cc2Cl)CCCc2cc(C(=O)O)ccc21 [Compound 17, (R)-8-(2,4-dichlorophenyl)-9-(3-((1-(3-fluoropropyl)pyrrolidin-3-yl)oxy)-2-methylphenyl)-6,7-dihydro-5H-benzo[7]annulene-3-carboxylic acid] | 87%
21 | Cc1cc(F)ccc1C1=C(c2cccc(O[C@@H]3CCN(CCCF)C3)c2C)c2ccc(C(=O)O)cc2CCC1 [Compound 18, (R)-8-(4-fluoro-2-methylphenyl)-9-(3-((1-(3-fluoropropyl)pyrrolidin-3-yl)oxy)-2-methylphenyl)-6,7-dihydro-5H-benzo[7]annulene-3-carboxylic acid] | 78%
22 | Cl.O=C(O)c1ccc2c(c1)CCCC(c1ccccc1)=C2c1cccc(O[C@@H]2CCN(CCCF)C2)c1F [Compound 19, (R)-9-(2-fluoro-3-((1-(3-fluoropropyl)pyrrolidin-3-yl)oxy)phenyl)-8-phenyl-6,7-dihydro-5H-benzo[7]annulene-3-carboxylic acid, hydrochloride] | 82%
23 | Cl.O=C(O)c1ccc2c(c1)CCCC(c1ccccc1Cl)=C2c1cccc(O[C@@H]2CCN(CCCF)C2)c1F [Compound 20, (R)-8-(2-chlorophenyl)-9-(2-fluoro-3-((1-(3-fluoropropyl)pyrrolidin-3-yl)oxy)phenyl)-6,7-dihydro-5H-benzo[7]annulene-3-carboxylic acid, hydrochloride] | 88%

Same assay, conditions: text statement on comparative compounds

Row | SMILES | degradation activity for estrogen receptors (in words)
24 | O=C(O)c1ccc2c(c1)CCCC(c1ccc(Cl)cc1Cl)=C2c1cccc(O[C@H]2CCN(CCCF)C2)c1 [Compound 1a, (S)-8-(2,4-dichlorophenyl)-9-(3-((1-(3-fluoropropyl)pyrrolidin-3-yl)oxy)phenyl)-6,7-dihydro-5H-benzo[7]annulene-3-carboxylic acid] | inactive
25 | O=C(O)c1ccc2c(c1)CCCC(c1ccccc1)=C2c1cccc(O[C@H]2CCN(CCCF)C2)c1 [Compound 2a, (S)-9-(3-((1-(3-fluoropropyl)pyrrolidin-3-yl)oxy)phenyl)-8-phenyl-6,7-dihydro-5H-benzo[7]annulene-3-carboxylic acid] | inactive
